Experiments:
[1] = test system: recombinant viruses (patient IN amplicons in pHXB2-ΔIN backbone) in MT4-LTR-eGFP cells; assay: Drug susceptibility testing of replication-competent recombinant viruses (phenotypic sensitivity, eGFP readout); format: cell-based, HIV-1; details: for EVG FC (elvitegravir sensitivity fold-change in IC50): vs IIIB HIV-1 wild-type reference
[2] = test system: IN WT, IN Y143C and IN Y143R; format: biochemical, HIV-1; details: strand transfer observed in the 3′end processing assay, uncleaved substrate, three enzymes
[3] = samples with the Y143C/H/R mutations

| SMILES | EVG FC (elvitegravir sensitivity fold-change in IC50) ([1]; patient 1, D0, integrase mutations V72I I203M) | EVG FC (elvitegravir sensitivity fold-change in IC50) ([1]; patient 1, M3 on RAL, V72I L74L/M T97A/T Y143C I203M) | EVG FC (elvitegravir sensitivity fold-change in IC50) ([1]; patient 1, M9 (RAL removed after month 6), V72I I203M) | EVG FC (elvitegravir sensitivity fold-change in IC50) ([1]; patient 1, M12 (RAL removed after month 6), V72I I203M) | EVG FC (elvitegravir sensitivity fold-change in IC50) ([1]; patient 2, D0, V151I/V) | EVG FC (elvitegravir sensitivity fold-change in IC50) ([1]; patient 2, M3 on RAL, N155N/H) | EVG FC (elvitegravir sensitivity fold-change in IC50) ([1]; patient 2, M6 on RAL, T97A/T G163G/R Y143Y/C/H/R) | EVG FC (elvitegravir sensitivity fold-change in IC50) ([1]; patient 2, M9 on RAL, T97A/T G163G/R Y143Y/C/H/R) | EVG FC (elvitegravir sensitivity fold-change in IC50) ([1]; patient 3, D0, V72I) | EVG FC (elvitegravir sensitivity fold-change in IC50) ([1]; patient 3, M6 on RAL, V72I T97A/T Y143C/H/R/Y) | EVG FC (elvitegravir sensitivity fold-change in IC50) ([1]; patient 3, M12 on RAL, V72I T97A/T Y143C/H/R/Y) | median EVG FC [1, 3] | range of EVG FC [1, 3] | median RAL FC [1, 3] | range of RAL FC [1, 3] | concentration of drug for complete inhibition of ST [2] [µM] |
| --- | --- | --- | --- | --- | --- | --- | --- | --- | --- | --- | --- | --- | --- | --- | --- | --- |
| COc1cc2c(cc1Cc1cccc(Cl)c1F)c(=O)c(C(=O)O)cn2[C@H](CO)C(C)C [EVG, elvitegravir] | 0.89 | 1.56 | 0.83 | 1.43 | 0.94 | 6.05 | 6.23 | 2.68 | 0.60 | 3 | 9.57 | 3 | 1.56–9.57 |  |  |  |
| Cc1nnc(C(=O)NC(C)(C)c2nc(C(=O)NCc3ccc(F)cc3)c(O)c(=O)n2C)o1 [RAL, raltegravir] |  |  |  |  |  |  |  |  |  |  |  |  |  | 24.83 | 5.87–51.95 | 0.4 |
